Drawing on patent US9688645B2, “Macrocyclic urea and sulfamide derivatives as inhibitors of TAFIa” (SANOFI, priority 2008, dated 2017), this text covers IC50 and ring closure, yield of all isomers for 25 compounds.

In one series the target is TAFIa (Homo sapiens (Human), UniProt Q96IY4). Description: TAFIa inhibition, Actichrome plasma TAFI Activity Kit (American Diagnostica). It counts as biochemical. Particulars: chromogenic read-out at 420 nm, 15 min preincubation at room temperature, pH 7.4, duplicate determination. The method, then: The prepared substances were tested for TAFIa inhibition using the Actichrome plasma TAFI Activity Kit from American Diagnostica (Pr. No. 874). This entailed adding 28 μl of assay buffer (20 mM Hepes, 150 mM NaCl, pH 7.4) and 10 μl of TAFIa (American Diagnostica Pr. No. 874TAFIA; 2.5 μg/ml) to 2 μl of 2.5 mM DMSO solution of the substance and incubating in a 96 half-well microtiter plate at room temperature for 15 minutes. The enzyme reaction was started by adding 10 μl of TAFIa developer (prediluted 1:2 with assay buffer). The time course of the reaction was followed at 420 nm in a microtiter plate reader (SpectraMax plus 384; Molecular Devices) for 15 minutes.
TAFIa, sequence (Q96IY4 115-423): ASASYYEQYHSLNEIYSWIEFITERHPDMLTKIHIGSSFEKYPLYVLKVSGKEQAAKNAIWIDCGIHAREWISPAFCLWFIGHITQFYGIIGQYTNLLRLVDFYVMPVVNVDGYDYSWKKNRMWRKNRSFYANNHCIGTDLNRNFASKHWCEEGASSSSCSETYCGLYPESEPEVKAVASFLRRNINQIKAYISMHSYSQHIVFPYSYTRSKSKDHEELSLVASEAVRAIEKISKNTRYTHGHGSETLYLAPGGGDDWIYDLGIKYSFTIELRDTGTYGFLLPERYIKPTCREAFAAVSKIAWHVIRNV
The IC50 values were calculated from the averaged values (duplicate determination) of serial dilutions of the substance with the aid of the Softmax Pro software (version 4.8; Molecular Devices).
In the case of `CC(C)[C@H]1COCCCCOc2ccc(cc2)C[C@@H](NC(=O)N[C@@H](CCCCN)C(=O)O)C(=O)N1` [Example 1-1, (S)-6-Amino-2-[3-((9S,12R)-9-isopropyl-11-oxo-2,7-dioxa-10-azabicyclo[12.2.2]octadeca-1(17),14(18),15-trien-12-yl)ureido]hexanoic acid], the IC50 worked out at 6 nM.
The same measure, in the same setting: then `NCCCC[C@H](NC(=O)N[C@@H]1Cc2ccc(cc2)OCCCCOCCNC1=O)C(=O)O` [Example 1-2, (S)-6-Amino-2-[3-((R)-11-oxo-2,7-dioxa-10-azabicyclo[12.2.2]octadeca-1(17),14(18),15-trien12-yl)ureido]hexanoic acid], with 9040 nM; and `CC1(C)COCCCCOc2ccc(cc2)C[C@@H](NC(=O)N[C@@H](CCCCN)C(=O)O)C(=O)N1` [Example 1-3, (S)-6-Amino-2-[3-((R)-9,9-dimethyl-11-oxo-2,7-dioxa-10-azabicyclo[12.2.2]octadeca-1(17),14(18),15-trien-12-yl)ureido]hexanoic acid], with 269 nM.
With `NCCCC[C@H](NC(=O)N[C@@H]1Cc2ccc(cc2)OCCCCOC[C@H](c2ccccc2)NC1=O)C(=O)O` [Example 1-4, (S)-6-Amino-2-[3-((9S,12R)-11-oxo-9-phenyl-2,7-dioxa-10-azabicyclo[12.2.2]octadeca-1(17),14(18),15-trien-12-yl)ureido]hexanoic acid], the half-maximal inhibitory concentration (IC50) worked out at 71 nM.
Same read-out and setting: then `NCCCC[C@H](NC(=O)N[C@@H]1Cc2ccc(cc2)OCCCCOC[C@H](Cc2ccccc2)NC1=O)C(=O)O` [Example 1-5, (S)-6-Amino-2-[3-((9S,12R)-9-benzyl-11-oxo-2,7-dioxa-10-azabicyclo[12.2.2]octadeca-1(17),14(18),15-trien-12-yl)ureido]hexanoic acid], with 105 nM; and `NCCCC[C@H](NC(=O)N[C@@H]1Cc2ccc(cc2)OCCCCOC[C@H](C2CCCCC2)NC1=O)C(=O)O` [Example 1-6, (S)-6-Amino-2-[3-((9S,12R)-9-cyclohexyl-11-oxo-2,7-dioxa-10-azabicyclo[12.2.2]octadeca-1(17),14(18),15-trien-12-yl)ureido]hexanoic acid], with 811 nM; and `CC[C@H]1COCCCCOc2ccc(cc2)C[C@@H](NC(=O)N[C@@H](CCCCN)C(=O)O)C(=O)N1` [Example 1-7, (S)-6-Amino-2-[3-((9S,12R)-9-ethyl-11-oxo-2,7-dioxa-10-azabicyclo[12.2.2]octadeca-1(17),14(18),15-trien-12-yl)ureido]hexanoic acid], with 49 nM.
Consider `C[C@H]1COCCCCOc2ccc(cc2)C[C@@H](NC(=O)N[C@@H](CCCCN)C(=O)O)C(=O)N1` [Example 1-8, (S)-6-Amino-2-[3-((9S,12R)-9-methyl-11-oxo-2,7-dioxa-10-azabicyclo[12.2.2]octadeca-1(17),14(18),15-trien-12-yl)ureido]hexanoic acid], for which the IC50 is 29 nM.
As for `CC(C)(C)[C@H]1COCCCCOc2ccc(cc2)C[C@@H](NC(=O)N[C@@H](CCCCN)C(=O)O)C(=O)N1` [Example 1-9, (S)-6-Amino-2-[3-((9S,12R)-9-tert-butyl-11-oxo-2,7-dioxa-10-azabicyclo[12.2.2]octadeca-1(17),14(18),15-trien-12-yl)ureido]hexanoic acid], the IC50 turned out to be 19 nM.
The same measure, in the same setting: then `CC(C)[C@H]1COCCCCCCCCOc2ccc(cc2)C[C@@H](NC(=O)N[C@@H](CCCCN)C(=O)O)C(=O)N1` [Example 2-1, (S)-6-Amino-2-[3-((13S,16R)-13-isopropyl-15-oxo-2,11-dioxa-14-azabicyclo[16.2.2]docosa-1(21), 18(22), 19-trien-16-yl)ureido]hexanoic acid], with 8.8 nM; and `CC(C)[C@H]1COC/C=C/COc2ccc(cc2)C[C@@H](NC(=O)N[C@@H](CCCCN)C(=O)O)C(=O)N1` [Example 3-1, (S)-6-Amino-2-[3-((E)-(9S,12R)-9-isopropyl-11-oxo-2,7-dioxa-10-azabicyclo[12.2.2]octadeca-1(17),4,14(18), 15-tetraen-12-yl)ureido]hexanoic acid], with 7.7 nM.
As for `CC(C)[C@H]1COCCCCCCCC[C@@H](NC(=O)N[C@@H](CCCCN)C(=O)O)C(=O)N1` [Example 4-1, (S)-6-Amino-2-[3-((3S,6R)-3-isopropyl-5-oxo-1-oxa-4-azacyclotetradec-6-yl)ureido]hexanoic acid], the IC50 was 17 nM.
The same measure, in the same setting: then `CC(C)[C@H]1COCCCCOc2ccc(cc2)C[C@@H](NC(=O)N[C@@H](CS(=O)(=O)CCN)C(=O)O)C(=O)N1` [Example 5-1, (R)-3-(2-Aminoethanesulfonyl)-2-[3-((9S,12R)-9-isopropyl-11-oxo-2,7-dioxa-10-azabicyclo[12.2.2]octadeca-1(17),14(18), 15-trien-12-yl)ureido]propionic acid], with 649 nM.
With `CC(C)[C@H]1COCCCCOc2ccc(cc2)C[C@@H](NC(=O)N[C@@H](Cc2ccc(N)nc2)C(=O)O)C(=O)N1` [Example 5-2, (S)-3-(6-Aminopyridin-3-yl)-2-[3-((9S,12R)-9-isopropyl-11-oxo-2,7-dioxa-10-azabicyclo[12.2.2]octadeca-1(17),14(18), 15-trien-12-yl)ureido]propionic acid], the IC50 came out at 9 nM.
As to `Nc1ccc(C[C@H](NC(=O)N[C@@H]2Cc3ccc(cc3)OCCCCOC[C@H](C3CC3)NC2=O)C(=O)O)cn1` [Example 5-3, (S)-3-(6-Aminopyridin-3-yl)-2-[3-((9S,12R)-9-cyclopropyl-11-oxo-2,7-dioxa-10-azabicyclo[12.2.2]octadeca-1(17),14(18), 15-trien-12-yl)ureido]propionic acid], the IC50 was determined as 32 nM.
Turning to `CC(C)[C@H]1COCCCCn2cnc(c2)C[C@@H](NC(=O)N[C@@H](Cc2ccc(N)nc2)C(=O)O)C(=O)N1` [Example 6-1, (S)-3-(6-Aminopyridin-3-yl)-2-[3-((8S,11R)-8-isopropyl-10-oxo-6-oxa-1,9,14-triazabicyclo[11.2.1]hexadeca-13(16),14-dien-11-yl)ureido]propionic acid], the IC50 amounted to 52 nM.
Same read-out and setting: the result for `CC(C)[C@H]1COCCCCc2ccc(cc2)C[C@@H](NC(=O)N[C@@H](Cc2ccc(N)nc2)C(=O)O)C(=O)N1` [Example 6-2, (S)-3-(6-Aminopyridin-3-yl)-2-[3-((3R,6S)-6-isopropyl-4-oxo-8-oxa-5-azabicyclo[11.2.2]heptadeca-1(16),13(17), 14-trien-3-yl)ureido]propionic acid] reads 21 nM.
Same read-out and setting: the result for `CC(C)[C@H]1COCCCCOc2ccc(cc2F)C[C@@H](NC(=O)N[C@@H](Cc2ccc(N)nc2)C(=O)O)C(=O)N1` [Example 6-3, (S)-3-(6-Aminopyridin-3-yl)-2-[3-((9S,12R)-16-fluoro-9-isopropyl-11-oxo-2,7-dioxa-10-azabicyclo[12.2.2]octadeca-1(17),14(18), 15-trien-12-yl)ureido]propionic acid] reads 12 nM; that for `CC(C)[C@H]1COCCCCOC[C@@H](NC(=O)N[C@@H](Cc2ccc(N)nc2)C(=O)O)C(=O)N1` [Example 6-4, (S)-3-(6-Aminopyridin-3-yl)-2-[3-((3S,6R)-3-isopropyl-5-oxo-1,8-dioxa-4-azacyclododec-6-yl)ureido]propionic acid], 55 nM.
On to `CC(C)[C@H]1COCCC(=O)Nc2ccc(cc2)C[C@@H](NC(=O)N[C@@H](CCCCN)C(=O)O)C(=O)N1` [Example 7-1, (S)-6-Amino-2-[3-((8S,11R)-8-isopropyl-3,10-dioxo-6-oxa-2,9-diazabicyclo[11.2.2]heptadeca-1(16),13(17),14-trien-11-yl)ureido]hexanoic acid], for which the IC50 is 22 nM.
The same measure, in the same setting: the result for `CC(C)[C@H]1COCCNC(=O)c2ccc(cc2)C[C@@H](NC(=O)N[C@@H](Cc2ccc(N)nc2)C(=O)O)C(=O)N1` [Example 7-4, (S)-3-(6-Aminopyridin-3-yl)-2-[3-((8S,11R)-8-isopropyl-2,10-dioxo-6-oxa-3,9-diazabicyclo[11.2.2]heptadeca-1(16),13(17), 14-trien-11-yl)ureido]propionic acid] reads 40 nM; that for `CC(C)[C@H]1COCC(O)C(O)COc2ccc(cc2)C[C@@H](NC(=O)N[C@@H](CCCCN)C(=O)O)C(=O)N1` (stereo partly drawn) [Example 8-1, (S)-6-Amino-2-[3-((9S,12R)-4,5-dihydroxy-9-isopropyl-11-oxo-2,7-dioxa-10-azabicyclo[12.2.2]octadeca-1(17),14(18),15-trien-12-yl)ureido]hexanoic acid], 23 nM; that for `CC(C)[C@H]1COCC(O)C(O)COc2ccc(cc2)C[C@@H](NC(=O)NC(Cc2ccc(N)nc2)C(=O)O)C(=O)N1` (stereo partly drawn) [Example 8-3, 3-(6-Aminopyridin-3-yl)-2-[3-((9S,12R)-4,5-dihydroxy-9-isopropyl-11-oxo-2,7-dioxa-10-azabicyclo[12.2.2]octadeca-1(17),14(18), 15-trien-12-yl)ureido]propionic acid], 59 nM.

Test system in a further series: not given
Assay: not given
Particulars: from C=CCCCCCOC[C@@H](NC(=O)[C@@H](Cc1ccc(OCC=C)cc1)NC(=O)OCC1c2ccccc2-c2ccccc21)C(C)C; rcm bond; dichloro(o-isopropoxyphenylmethylene)(tricyclohexylphosphine)ruthenium (Hoveyda-Grubbs catalyst); dichloromethane; 3.5 mM; 40.0 °C; 24.0 h.
Consider `CC(C)[C@H]1COCCCCCC=CCOc2ccc(cc2)C[C@@H](NC(=O)OCC2c3ccccc3-c3ccccc32)C(=O)N1`, for which the ring closure, yield of all isomers was determined as 90.4%.

The series is the same for the next values; noted with them: from C=CCOC[C@@H](NC(=O)[C@@H](Cc1ccc(OCC=C)cc1)NC(=O)OCC1c2ccccc2-c2ccccc21)C(C)C; rcm bond; dichloro(o-isopropoxyphenylmethylene)(tricyclohexylphosphine)ruthenium (Hoveyda-Grubbs catalyst); dichloromethane; 3.61 mM; 40.0 °C; 24.0 h.
The compound `CC(C)[C@H]1COCC=CCOc2ccc(cc2)C[C@@H](NC(=O)OCC2c3ccccc3-c3ccccc32)C(=O)N1` showed a ring closure, yield of all isomers of 86.6%.

A word on the IC50: it is the midpoint of a concentration-inhibition curve.
